The results in this text go back to patent US8518913B2, “Phosphorous derivatives as chemokine receptor modulators” (Allergan, Inc., priority 2010, dated 2013).

Each structure is given as a SMILES string. pIC50: −log10 of the molar value. Read-outs that look alike come from different tables or passages of the source.

Broadly, the pIC50 is −log10 of the IC50, conventionally taken in molar units.

For this experiment, the target named is T1, CCR2 receptor (Homo sapiens, UniProt P41597).
T1 construct: expressed in transfected cells
T1 sequence (P41597 whole entry): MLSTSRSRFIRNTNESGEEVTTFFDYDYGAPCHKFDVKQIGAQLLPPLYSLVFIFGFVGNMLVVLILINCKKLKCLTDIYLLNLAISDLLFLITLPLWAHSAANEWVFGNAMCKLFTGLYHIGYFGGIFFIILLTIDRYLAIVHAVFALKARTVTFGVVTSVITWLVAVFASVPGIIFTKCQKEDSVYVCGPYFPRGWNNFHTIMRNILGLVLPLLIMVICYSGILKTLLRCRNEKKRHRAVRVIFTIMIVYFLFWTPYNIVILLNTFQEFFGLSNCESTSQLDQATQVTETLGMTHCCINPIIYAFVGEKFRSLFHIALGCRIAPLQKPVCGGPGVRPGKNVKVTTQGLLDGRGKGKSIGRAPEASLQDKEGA
The experiment can be described thus: CCR2 calcium activity assay on FLIPR Tetra in HEK-Gqi5 cells stably expressing CCR2. Format: cell-based. The method, then:
HEK-Gqi5 cells stably expressing CCR2 were cultured in (DMEM high glucose, 10% FBS, 1% PSA, 400 μg/ml geneticin and 50 μg/ml hygromycin. Appropriate positive control chemokines (MCP-1, MIP1A or RANTES) was used as the positive control agonist for screening compound-induced calcium activity assayed on the FLIPR^Tetra. The drug plates were prepared in 384-well microplates using the EP3 and the MultiPROBE robotic liquid handling systems. Compounds were synthesized and tested for CCR2 activity.

Setting [1] is: HEK-Gqi5 cells stably expressing CCR2, calcium activity, FLIPR Tetra.
Where [2] appears, read: HEK-Gqi5 cells stably expressing CCR2, calcium activity, FLIPR Tetra, read-out: CCR2 IC50.

`CCOP(C)(=O)c1ccc(Cl)cc1NS(=O)(=O)c1ccc(Cl)c(C(F)(F)F)c1` (centres unmarked) [Compound 1, Ethyl [4-chloro-2-({[4-chloro-3-(trifluoromethyl)phenyl]sulfonyl}amino)phenyl]methylphosphinate]: the pIC50 was 6.80. Moreover, under setting [1], the “CCR2 % ANTAGONISM” value is 80%.
Turning to `CP(=O)(c1ccc(Cl)cc1NS(=O)(=O)c1ccc(Cl)c(C(F)(F)F)c1)N1CCOCC1` (centres unmarked) [Compound 6, 4-Chloro-N-{5-chloro-2-[methyl(morpholin-4-yl)phosphoryl]phenyl}-3-(trifluoromethyl)benzenesulfonamide], under setting [1], the “CCR2 % ANTAGONISM” value is recorded as 93%. For the same molecule, the pIC50 under setting [2] is 7.82.
As to `CP(=O)(c1ccc(Cl)cc1NS(=O)(=O)c1ccc(Cl)c(C(F)(F)F)c1)N1CCC(=O)CC1` (centres unmarked) [Compound 7, 4-Chloro-N-{5-chloro-2-[methyl(4-oxopiperidin-1-yl)phosphoryl]phenyl}-3-(trifluoromethyl)benzenesulfonamide], the “CCR2 % ANTAGONISM” value under setting [1] is reported as 87%. Also, the pIC50 under setting [2] was 7.60.
The like results for `CCCCOP(=O)(c1ccc(Cl)cc1NS(=O)(=O)c1ccc(Cl)c(C(F)(F)F)c1)N1CCC(=O)CC1` (centres unmarked) [Compound 10, Butyl [4-chloro-2-({[4-chloro-3-(trifluoromethyl)phenyl]sulfonyl}amino)phenyl](4-oxopiperidin-1-yl)phosphinate] were, in that order, 84% and 6.27.
As to `CCOP(=O)(c1ccc(Cl)cc1NS(=O)(=O)c1ccc(Cl)c(C(F)(F)F)c1)N1CCOCC1` (centres unmarked) [Compound 11, Ethyl [4-chloro-2-({[4-chloro-3-(trifluoromethyl)phenyl]sulfonyl}amino)phenyl]morpholin-4-ylphosphinate], under setting [1], the “CCR2 % ANTAGONISM” value came out at 65%. Further, under setting [2], the pIC50 was 6.82.
For `COP(=O)(c1ccc(Cl)cc1NS(=O)(=O)c1ccc(Cl)c(C(F)(F)F)c1)N1CCC(=O)CC1` (centres unmarked) [Compound 12, Methyl [4-chloro-2-({[4-chloro-3-(trifluoromethyl)phenyl]sulfonyl}amino)phenyl](4-oxopiperidin-1-yl)phosphinate], the “CCR2 % ANTAGONISM” value under setting [1] is reported as 95%. The pIC50 under setting [2] is 6.91.
As to `CP(C)(=O)c1ccc(Cl)cc1NS(=O)(=O)c1ccc(Cl)c(C(F)(F)F)c1` [Compound 15, 4-Chloro-N-[5-chloro-2-(dimethylphosphoryl)phenyl]-3-(trifluoromethyl)benzenesulfonamide], the “CCR2 % ANTAGONISM” value under setting [1] worked out at 92%. The pIC50 under setting [2] was 6.90.
